Assay results as given in patent US20230026696A1, “TRPV4 RECEPTOR LIGANDS” (UNIVERSITY OF UTAH RESEARCH FOUNDATION, priority 2019, published 2023).
pIC50: −log10 of the molar value.

Biological target: T1, human TRPV4 (Homo sapiens, UniProt Q9HBA0)
T1 construct: expressed in transfected cells
Test: Fluorometric cell-based Ca2+ flux assay, HEK-293 cells stably overexpressing human TRPV4
Details: HEK-293 stably overexpressing human TRPV4; agonist GSK1016790A 30 nM
Procedure, shortened: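 HEK-293 cells stably overexpressing human TRPV4, Fluo 4-loaded, pre-incubated 30 min at 37° C with compound, then stimulated with 30 nM GSK1016790A (final). Max ΔF/s over 1 min, media-corrected, expressed relative to no-antagonist control; IC50 from ≥8 concentrations, ≥3 replicates.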

T1 sequence (Q9HBA0 whole entry): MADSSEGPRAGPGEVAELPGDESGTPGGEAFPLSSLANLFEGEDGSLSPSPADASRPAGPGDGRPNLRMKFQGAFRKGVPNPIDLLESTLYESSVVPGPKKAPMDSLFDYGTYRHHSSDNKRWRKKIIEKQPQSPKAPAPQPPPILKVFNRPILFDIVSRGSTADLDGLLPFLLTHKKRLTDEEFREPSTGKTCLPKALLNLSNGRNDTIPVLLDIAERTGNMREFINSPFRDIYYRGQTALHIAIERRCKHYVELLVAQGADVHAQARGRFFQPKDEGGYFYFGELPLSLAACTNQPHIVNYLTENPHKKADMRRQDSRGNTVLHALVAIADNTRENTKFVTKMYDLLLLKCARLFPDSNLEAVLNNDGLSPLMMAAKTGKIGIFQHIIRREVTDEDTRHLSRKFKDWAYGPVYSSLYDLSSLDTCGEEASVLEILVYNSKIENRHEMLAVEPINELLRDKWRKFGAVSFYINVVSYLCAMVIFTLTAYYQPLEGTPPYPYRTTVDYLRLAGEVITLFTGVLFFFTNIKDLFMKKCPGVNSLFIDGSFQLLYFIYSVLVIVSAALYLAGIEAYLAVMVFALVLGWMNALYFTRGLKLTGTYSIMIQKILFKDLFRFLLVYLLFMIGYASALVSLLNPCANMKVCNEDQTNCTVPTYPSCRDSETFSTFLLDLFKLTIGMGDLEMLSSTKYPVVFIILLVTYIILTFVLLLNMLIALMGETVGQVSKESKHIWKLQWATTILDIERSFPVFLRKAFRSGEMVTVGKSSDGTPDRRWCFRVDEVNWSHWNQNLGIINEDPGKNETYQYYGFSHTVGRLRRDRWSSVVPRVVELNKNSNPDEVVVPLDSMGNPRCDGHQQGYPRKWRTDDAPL

Compound	pIC50
N#Cc1ccc(OCC2(CO)CN(S(=O)(=O)c3ccccc3)C2)cc1F [Compound 72, 2-Fluoro-4-((3-(hydroxymethyl)-1-(phenylsulfonyl)azetidin-3-yl)methoxy)benzonitrile]	5.30
Cc1cc(Cl)ccc1S(=O)(=O)N1CC(CO)(COc2ccc(C#N)c(F)c2)C1 [Compound 74, 4-((1-((4-Chloro-2-methylphenyl)sulfonyl)-3-(hydroxymethyl)azetidin-3-yl)methoxy)-2-fluorobenzonitrile]	6.28
Cc1cc(F)ccc1S(=O)(=O)N1CC(CO)(COc2ccc(C#N)c(F)c2)C1 [Compound 77, 2-Fluoro-4-((1-((4-fluoro-2-methylphenyl)sulfonyl)-3-(hydroxymethyl)azetidin-3-yl)methoxy)benzonitrile]	< 5.60
N#Cc1ccc(OCC2(CO)CN(S(=O)(=O)c3ccc(Cl)cc3F)C2)cc1F [Compound 78, 4-((1-((4-Chloro-2-fluorophenyl)sulfonyl)-3-(hydroxymethyl)azetidin-3-yl)methoxy)-2-fluorobenzonitrile]	6.30 to 7.00
Cc1cc(C#N)ccc1S(=O)(=O)N1CC(CO)(COc2ccc(C#N)c(F)c2)C1 [Compound 79, 4-((1-((4-Cyano-2-methylphenyl)sulfonyl)-3-(hydroxymethyl)azetidin-3-yl)methoxy)-2-fluorobenzonitrile]	< 5.89
Cc1ccc(S(=O)(=O)N2CC(CO)(COc3ccc(C#N)c(F)c3)C2)c(Cl)c1 [Compound 82, 4-((1-((2-Chloro-4-methylphenyl)sulfonyl)-3-(hydroxymethyl)azetidin-3-yl)methoxy)-2-fluorobenzonitrile]	< 7.57
COc1ccc(S(=O)(=O)N2CC(CO)(COc3ccc(C#N)c(F)c3)C2)c(Cl)c1 [Compound 83, 4-((1-((2-chloro-4-methoxyphenyl)sulfonyl)-3-(hydroxymethyl)azetidin-3-yl)methoxy)-2-fluorobenzonitrile]	< 7.19
N#Cc1ccc(OCC2(CO)CN(S(=O)(=O)c3ccc(C(F)(F)F)cc3C#N)C2)cc1F [Compound 86, 4-((1-((2-Cyano-4-(trifluoromethyl)phenyl)sulfonyl)-3-(hydroxymethyl)azetidin-3-yl)methoxy)-2-fluorobenzonitrile]	7.65
O=S(=O)(c1ccc(Cl)cc1Cl)N1CC(CO)(COc2ccc(F)c(F)c2)C1 [Compound 87, (1-((2,4-Dichlorophenyl)sulfonyl)-3-((3,4-difluorophenoxy)methyl)azetidin-3-yl)methanol]	5.52 to 6.00
N#Cc1cccc(OCC2(CO)CN(S(=O)(=O)c3ccc(Cl)cc3Cl)C2)c1 [Compound 89, 3-((1-((2,4-Dichlorophenyl)sulfonyl)-3-(hydroxymethyl)azetidin-3-yl)methoxy)benzonitrile]	5.52 to 6.00
O=S(=O)(c1ccc(Cl)cc1Cl)N1CC(CO)(COc2ccncc2)C1 [Compound 91, (1-((2,4-Dichlorophenyl)sulfonyl)-3-((pyridin-4-yloxy)methyl)azetidin-3-yl)methanol]	~5.30
Cc1ccc(OCC2(CO)CN(S(=O)(=O)c3ccc(Cl)cc3Cl)C2)cc1 [Compound 92, (1-((2,4-Dichlorophenyl)sulfonyl)-3-((p-tolyloxy)methyl)azetidin-3-yl)methanol]	~5.30
O=S(=O)(c1ccc(Cl)cc1Cl)N1CC(CO)(COc2ccnc(Cl)c2)C1 [Compound 94, (3-(((2-Chloropyridin-4-yl)oxy)methyl)-1-((2,4-dichlorophenyl)sulfonyl)azetidin-3-yl)methanol]	~5.52
CCOc1cc(OCC2(COC(=O)c3ccc(Br)cc3)CN(S(=O)(=O)c3ccc(Cl)cc3Cl)C2)ccc1C#N [Compound 99, (3-((4-Cyano-3-ethoxyphenoxy)methyl)-1-((2,4-dichlorophenyl)sulfonyl)azetidin-3-yl)methyl 4-bromobenzoate]	< 6.00
CCOc1cc(OCC2(CO)CN(S(=O)(=O)c3ccc(Cl)cc3Cl)C2)ccc1C#N [Compound 100, 4-((1-((2,4-Dichlorophenyl)sulfonyl)-3-(hydroxymethyl)azetidin-3-yl)methoxy)-2-ethoxybenzonitrile]	< 6.00
N#Cc1ccc(NCC2(CO)CN(S(=O)(=O)c3ccc(Cl)cc3Cl)C2)cc1F [Compound 101, 4-(((1-((2,4-dichlorophenyl)sulfonyl)-3-(hydroxymethyl)azetidin-3-yl)methyl)amino)-2-fluorobenzonitrile]	6.87
COc1ccc(S(=O)(=O)N2CC(CO)(COc3ccc(C#N)c(F)c3)C2)c(Br)c1 [Compound 102, 4-((1-((2-Bromo-4-methoxyphenyl)sulfonyl)-3-(hydroxymethyl)azetidin-3-yl)methoxy)-2-fluorobenzonitrile]	6.64
N#Cc1ccc(OCC2(CO)CN(S(=O)(=O)c3ccc(OC(F)(F)F)cc3Br)C2)cc1F [Compound 105, 4-((1-((2-Bromo-4-(trifluoromethoxy)phenyl)sulfonyl)-3-(hydroxymethyl)azetidin-3-yl)methoxy)-2-fluorobenzonitrile]	5.92
COc1cc(C#N)c(F)cc1OCC1(CO)CN(S(=O)(=O)c2ccc(Cl)cc2Cl)C1 [Compound 108, 4-((1-((2,4-Dichlorophenyl)sulfonyl)-3-(hydroxymethyl)azetidin-3-yl)methoxy)-2-fluoro-5-methoxybenzonitrile]	6.28

The remaining lines, values ahead:

pIC50	Compound
5.52	Cc1ccc(S(=O)(=O)N2CC(CO)(COc3ccc(C#N)c(F)c3)C2)cc1 [Compound 73, 2-Fluoro-4-((3-(hydroxymethyl)-1-tosylazetidin-3-yl)methoxy)benzonitrile]
< 5.89	N#Cc1ccc(OCC2(CO)CN(S(=O)(=O)c3c(Cl)cccc3Cl)C2)cc1F [Compound 75, 4-((1-((2,6-Dichlorophenyl)sulfonyl)-3-(hydroxymethyl)azetidin-3-yl)methoxy)-2-fluorobenzonitrile]
< 5.60	Cc1ccccc1S(=O)(=O)N1CC(CO)(COc2ccc(C#N)c(F)c2)C1 [Compound 76, 2-Fluoro-4-((3-(hydroxymethyl)-1-(o-tolylsulfonyl)azetidin-3-yl)methoxy)benzonitrile]
< 6.07	COC(=O)c1ccc(S(=O)(=O)N2CC(CO)(COc3ccc(C#N)c(F)c3)C2)c(Cl)c1 [Compound 80, Methyl 3-chloro-4-((3-((4-cyano-3-fluorophenoxy)methyl)-3-(hydroxymethyl)azetidin-1-yl)sulfonyl)benzoate]
8.30	N#Cc1ccc(OCC2(CO)CN(S(=O)(=O)c3ccc(Cl)cc3C#N)C2)cc1F [Compound 81, 4-((1-((4-Chloro-2-cyanophenyl)sulfonyl)-3-(hydroxymethyl)azetidin-3-yl)methoxy)-2-fluorobenzonitrile]
< 6.52	N#Cc1ccc(OCC2(CO)CN(S(=O)(=O)c3ccc(Cl)cc3)C2)cc1F [Compound 84, 4-((1-((4-Chlorophenyl)sulfonyl)-3-(hydroxymethyl)azetidin-3-yl)methoxy)-2-fluorobenzonitrile]
8.31	N#Cc1ccc(OCC2(CO)CN(S(=O)(=O)c3ccccc3C#N)C2)cc1F [Compound 85, 4-((1-((2-Cyanophenyl)sulfonyl)-3-(hydroxymethyl)azetidin-3-yl)methoxy)-2-fluorobenzonitrile]
6.30	N#Cc1ccc(OCC2(CO)CN(S(=O)(=O)c3ccc(Cl)cc3Cl)C2)c(Cl)c1 [Compound 88, 3-Chloro-4-((1-((2,4-dichlorophenyl)sulfonyl)-3-(hydroxymethyl)azetidin-3-yl)methoxy)benzonitrile]
~5.30	COC(=O)c1ccc(OCC2(CO)CN(S(=O)(=O)c3ccc(Cl)cc3Cl)C2)cc1 [Compound 90, Methyl 4-((1-((2,4-dichlorophenyl)sulfonyl)-3-(hydroxymethyl)azetidin-3-yl)methoxy)benzoate]
~5.30	NC(=O)c1ccc(OCC2(CO)CN(S(=O)(=O)c3ccc(Cl)cc3Cl)C2)cc1 [Compound 93, 4-((1-((2,4-Dichlorophenyl)sulfonyl)-3-(hydroxymethyl)azetidin-3-yl)methoxy)benzamide]
~5.52	Cc1cc(OCC2(CO)CN(S(=O)(=O)c3ccc(Cl)cc3Cl)C2)ccn1 [Compound 95, (1-((2,4-Dichlorophenyl)sulfonyl)-3-(((2-methylpyridin-4-yl)oxy)methyl)azetidin-3-yl)methanol]
~5.30	O=S(=O)(c1ccc(Cl)cc1Cl)N1CC(CO)(COc2cccnc2)C1 [Compound 97, (1-((2,4-Dichlorophenyl)sulfonyl)-3-((pyridin-3-yloxy)methyl)azetidin-3-yl)methanol]
7.17	COc1cc(C#N)ccc1OCC1(CO)CN(S(=O)(=O)c2ccc(Cl)cc2Cl)C1 [Compound 98, 4-((1-((2,4-Dichlorophenyl)sulfonyl)-3-(hydroxymethyl)azetidin-3-yl)methoxy)-3-methoxybenzonitrile]
7.83	Cc1ccc(S(=O)(=O)N2CC(CO)(COc3ccc(C#N)c(F)c3)C2)c(C#N)c1 [Compound 103, 4-((1-((2-Cyano-4-methylphenyl)sulfonyl)-3-(hydroxymethyl)azetidin-3-yl)methoxy)-2-fluorobenzonitrile]
7.53	N#Cc1ccc(OCC2(CO)CN(S(=O)(=O)c3ccc(F)cc3C#N)C2)cc1F [Compound 104, 4-((1-((2-Cyano-4-fluorophenyl)sulfonyl)-3-(hydroxymethyl)azetidin-3-yl)methoxy)-2-fluorobenzonitrile]
6.84	COc1ccc(S(=O)(=O)N2CC(CO)(COc3ccc(C#N)c(F)c3)C2)c(C#N)c1 [Compound 106, 4-((1-((2-Cyano-4-methoxyphenyl)sulfonyl)-3-(hydroxymethyl)azetidin-3-yl)methoxy)-2-fluorobenzonitrile]
7.10	N#Cc1ccc(OCC2(CO)CN(S(=O)(=O)c3ccc(OC(F)(F)F)cc3C#N)C2)cc1F [Compound 107, 4-((1-((2-Cyano-4-trifluoromethoxyphenyl)sulfonyl)-3-(hydroxymethyl)azetidin-3-yl)methoxy)-2-fluorobenzonitrile]
